Seven molecules from PubChem BioAssay (NCI) can be followed below.

Test systems include NCI-H23 lung; SN12C renal; HCT-15 colon; SW-620 colon; SK-MEL-28 melanoma; HS 578T breast; UACC-257 melanoma; MOLT-4 leukemia; PC-3 prostate; CCRF-CEM leukemia; SK-MEL-2 melanoma; SF-295 CNS; UO-31 renal; HOP-62 NSCLC; NCI-H226 lung; MCF7 breast; SNB-75 CNS; SR leukemia.
What all share (test): growth of human tumour cells (NCI), 48 h

Structures are written as SMILES.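 Results reflect a 48-hour exposure of cells in 96-well plates to compound at five concentrations. Definition used: TGI = concentration required for complete inhibition of growth.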

As for `OC1=C2c3ccccc3NC2Oc2cc(F)ccc21` (stereo unspecified), the TGI with NCI-H23 lung was 36 µM; in the test with SN12C renal, 25.9 µM; in the test on HCT-15 colon it was 37.3 µM; in the test on SW-620 colon, 47.9 µM; in the test on SK-MEL-28 melanoma, above 100 µM; in the test on HS 578T breast it was above 100 µM. Further, the TGI was determined as 41.4 µM in the test with UACC-257 melanoma; 34.5 µM in the test on MOLT-4 leukemia; 41.4 µM in the test on PC-3 prostate; 7.21 µM with CCRF-CEM leukemia; 41.8 µM with SK-MEL-2 melanoma; 29.5 µM in the test with SF-295 CNS. For the same molecule, the TGI in the test on UO-31 renal is 28.2 µM; in the test with HOP-62 NSCLC, 33.2 µM; in the test with NCI-H226 lung, 89.5 µM; with MCF7 breast, above 100 µM.
For `C=CC(C)(C)n1cc(C2=C3OC(=O)C(c4cn(C(C)(C)C=C)c5ccccc45)=C3OC2=O)c2ccccc21`, the TGI with NCI-H23 lung, with SN12C renal, in the test on HCT-15 colon, in the test on SW-620 colon, with SK-MEL-28 melanoma and in the test on UACC-257 melanoma was above 100 µM throughout. Further, the TGI in the test with MOLT-4 leukemia, in the test with PC-3 prostate, with CCRF-CEM leukemia, with SK-MEL-2 melanoma, with SNB-75 CNS and in the test with SF-295 CNS was above 100 µM each time. Also, the TGI in the test on UO-31 renal, in the test on HOP-62 NSCLC, with SR leukemia, with NCI-H226 lung and in the test on MCF7 breast was above 100 µM in each case.
In the case of `CCOC(=O)/C(C#N)=C/Nc1c(C)n(C)n(-c2ccccc2)c1=O`, the TGI in the test on NCI-H23 lung, in the test with SN12C renal, in the test on HCT-15 colon, in the test with SW-620 colon, in the test with UACC-257 melanoma and in the test on MOLT-4 leukemia was above 100 µM throughout. Moreover, the TGI with PC-3 prostate, in the test on CCRF-CEM leukemia, with SK-MEL-2 melanoma, in the test with SF-295 CNS, with UO-31 renal and in the test with SR leukemia was above 100 µM each time. Further, the TGI with NCI-H226 lung and in the test with MCF7 breast was above 100 µM throughout.
In the case of `Cc1cccc(N/C(=C(/C(Cl)=C(Cl)Cl)[N+](=O)[O-])n2nnc3ccccc32)c1`, the TGI with NCI-H23 lung was 34.7 µM; in the test on SN12C renal, 32.9 µM; in the test with HCT-15 colon it was 42.3 µM; in the test with SW-620 colon, 29.2 µM; in the test with SK-MEL-28 melanoma it was 28.1 µM; with HS 578T breast, 21.8 µM. The TGI in the test on UACC-257 melanoma is 49.3 µM; in the test on MOLT-4 leukemia, above 100 µM; in the test with PC-3 prostate it was 30.1 µM; in the test on CCRF-CEM leukemia, above 100 µM; with SK-MEL-2 melanoma it was 36.3 µM; in the test on SF-295 CNS, 32 µM. Also, the TGI with UO-31 renal came out at 31 µM; with HOP-62 NSCLC, 33.3 µM; in the test with NCI-H226 lung, 26.6 µM; in the test with MCF7 breast, 50 µM.
For `CC(=O)C(C(=O)c1ccc(C)cc1)[C@@H]1OC(C)(C)O[C@@H]1[C@H]1COC(C)(C)O1` (stereo partly specified), the TGI with NCI-H23 lung was 32.6 µM; with SN12C renal it was 17.3 µM; in the test with HCT-15 colon it was 37 µM; in the test with SW-620 colon, above 54.6 µM; in the test with SK-MEL-28 melanoma it was above 77.7 µM; in the test on HS 578T breast, above 59.8 µM. Also, the TGI was 28.6 µM in the test with UACC-257 melanoma; 22.1 µM in the test with MOLT-4 leukemia; above 31.9 µM in the test on PC-3 prostate; above 36.2 µM in the test on CCRF-CEM leukemia; above 23.2 µM in the test on SK-MEL-2 melanoma; above 59.2 µM in the test on SNB-75 CNS. In addition, the TGI with SF-295 CNS was above 100 µM; in the test on UO-31 renal, above 41.5 µM; with HOP-62 NSCLC, above 58.4 µM; in the test on MCF7 breast, 15.4 µM.
On to `O=S(=O)(O)CCSSCCS(=O)(=O)O`, for which the TGI in the test on NCI-H23 lung, with SN12C renal, in the test with HCT-15 colon, in the test with SW-620 colon, with SK-MEL-28 melanoma and with UACC-257 melanoma was above 1000 µM throughout. Also, the TGI with MOLT-4 leukemia, with PC-3 prostate, with CCRF-CEM leukemia, with SK-MEL-2 melanoma, with SNB-75 CNS and in the test on SF-295 CNS was above 1000 µM throughout. In addition, the TGI in the test on UO-31 renal, with HOP-62 NSCLC, in the test with SR leukemia, in the test with NCI-H226 lung and in the test with MCF7 breast was above 1000 µM throughout.
Consider `CCCCNC(=S)Nc1nc(C(=O)NNC(=S)NCC)cs1`, for which the TGI with NCI-H23 lung, in the test with SN12C renal, in the test with HCT-15 colon, with SW-620 colon, in the test on UACC-257 melanoma and with MOLT-4 leukemia was above 100 µM throughout. Moreover, the TGI with PC-3 prostate, with CCRF-CEM leukemia, in the test with SK-MEL-2 melanoma, in the test on SNB-75 CNS, in the test with SF-295 CNS and in the test on UO-31 renal was above 100 µM in each case. Further, the TGI in the test on HOP-62 NSCLC, with SR leukemia and in the test on MCF7 breast was above 100 µM each time.
